Where a name gives a salt, the structure may show the parent alone.

Chain of hNav1.7 (Q15858 other isoform, or with tags, fused parts or gaps): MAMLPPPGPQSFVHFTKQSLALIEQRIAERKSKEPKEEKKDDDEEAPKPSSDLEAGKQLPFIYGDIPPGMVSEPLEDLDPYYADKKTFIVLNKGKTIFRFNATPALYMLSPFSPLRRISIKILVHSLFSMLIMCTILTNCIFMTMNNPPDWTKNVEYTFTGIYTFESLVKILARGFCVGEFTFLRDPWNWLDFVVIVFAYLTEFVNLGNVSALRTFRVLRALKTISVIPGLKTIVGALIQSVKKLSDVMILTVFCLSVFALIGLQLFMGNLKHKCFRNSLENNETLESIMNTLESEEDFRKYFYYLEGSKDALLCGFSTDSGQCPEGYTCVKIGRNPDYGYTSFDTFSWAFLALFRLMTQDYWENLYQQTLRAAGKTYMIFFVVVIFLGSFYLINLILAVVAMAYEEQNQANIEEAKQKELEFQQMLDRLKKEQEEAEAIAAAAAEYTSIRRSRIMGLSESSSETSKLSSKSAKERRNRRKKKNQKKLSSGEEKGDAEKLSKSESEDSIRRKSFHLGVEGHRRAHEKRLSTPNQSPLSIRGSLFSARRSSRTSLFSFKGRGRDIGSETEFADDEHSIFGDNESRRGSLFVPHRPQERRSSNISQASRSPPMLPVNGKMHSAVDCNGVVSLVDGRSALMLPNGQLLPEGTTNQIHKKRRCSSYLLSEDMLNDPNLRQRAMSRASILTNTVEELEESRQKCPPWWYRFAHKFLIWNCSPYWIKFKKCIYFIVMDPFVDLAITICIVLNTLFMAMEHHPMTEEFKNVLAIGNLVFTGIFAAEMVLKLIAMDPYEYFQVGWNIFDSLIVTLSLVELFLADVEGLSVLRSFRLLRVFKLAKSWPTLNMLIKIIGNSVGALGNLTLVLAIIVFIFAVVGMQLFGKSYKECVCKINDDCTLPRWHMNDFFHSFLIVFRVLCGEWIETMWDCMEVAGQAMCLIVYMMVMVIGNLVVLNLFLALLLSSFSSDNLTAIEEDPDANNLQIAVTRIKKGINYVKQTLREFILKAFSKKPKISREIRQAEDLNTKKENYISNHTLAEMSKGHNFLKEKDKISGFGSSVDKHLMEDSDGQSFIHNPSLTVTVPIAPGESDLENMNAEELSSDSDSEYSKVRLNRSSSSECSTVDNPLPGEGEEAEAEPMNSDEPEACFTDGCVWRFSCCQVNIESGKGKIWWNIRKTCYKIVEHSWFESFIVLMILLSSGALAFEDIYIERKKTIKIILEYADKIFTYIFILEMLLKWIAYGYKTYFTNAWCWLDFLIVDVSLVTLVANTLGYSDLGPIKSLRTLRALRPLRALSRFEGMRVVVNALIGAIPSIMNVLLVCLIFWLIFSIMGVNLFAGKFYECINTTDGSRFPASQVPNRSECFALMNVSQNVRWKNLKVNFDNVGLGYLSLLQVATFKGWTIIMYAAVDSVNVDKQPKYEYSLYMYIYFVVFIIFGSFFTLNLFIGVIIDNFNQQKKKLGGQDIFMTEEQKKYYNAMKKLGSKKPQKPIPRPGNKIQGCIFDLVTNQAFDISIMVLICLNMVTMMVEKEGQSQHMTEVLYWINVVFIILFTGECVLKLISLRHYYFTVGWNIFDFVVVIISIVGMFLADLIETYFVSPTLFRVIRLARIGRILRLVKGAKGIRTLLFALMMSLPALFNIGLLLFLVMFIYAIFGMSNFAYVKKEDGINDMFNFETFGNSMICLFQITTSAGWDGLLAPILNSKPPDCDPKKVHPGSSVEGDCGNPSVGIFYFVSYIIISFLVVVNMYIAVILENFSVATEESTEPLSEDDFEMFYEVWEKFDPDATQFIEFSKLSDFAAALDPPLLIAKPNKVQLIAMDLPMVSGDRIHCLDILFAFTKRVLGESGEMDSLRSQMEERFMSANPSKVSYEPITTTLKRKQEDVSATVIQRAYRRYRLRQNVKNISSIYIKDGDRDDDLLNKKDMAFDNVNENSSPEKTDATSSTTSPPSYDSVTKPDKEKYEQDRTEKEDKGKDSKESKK
Chain of hNav1.7 (Q07699 19-218 partner): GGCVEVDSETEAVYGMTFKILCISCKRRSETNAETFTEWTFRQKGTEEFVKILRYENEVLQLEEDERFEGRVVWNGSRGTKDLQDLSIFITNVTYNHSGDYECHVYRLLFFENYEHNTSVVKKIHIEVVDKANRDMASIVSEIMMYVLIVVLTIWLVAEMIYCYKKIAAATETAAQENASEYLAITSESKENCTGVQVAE

The first experiment addresses hNav1.7 (Homo sapiens (Human), UniProt Q15858). Nature of the experiment: Tritiated sulfonamide competitive binding to membranes from cells expressing hNav1.7 and the β1 subunit.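 Also: Filter-bound radioactivity counted by liquid scintillation, nonspecific binding defined with excess unlabelled ligand, IC50 fitted to percent inhibition of specific binding.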
Conditions: not given
On to `Cc1ccc(CN2CCC[C@@H](Oc3cc(F)c(C(=O)NS(=O)(=O)N4CCC4)cc3C3CC3)C2)cc1` [Example 33, (R)—N-(azetidin-1-ylsulfonyl)-5-cyclopropyl-2-4-fluoro-((1-(4-methylbenzyl)piperidin-3-yl)oxy)benzamide], for which the IC50 was 13.2 nM.

The molecule `O=C(NS(=O)(=O)C1CC1)c1cc(C2CC2)c(CN2CCC(S(=O)(=O)c3cc(Cl)cc(Cl)c3)CC2)cc1F` [Example 533, 5-cyclopropyl-N-(cyclopropylsulfonyl)-4-((4-((3,5-dichlorophenyl)sulfonyl)piperidin-1-yl)methyl)-2-fluorobenzamide, trifluoroacetic acid salt] yielded an IC50 of 127 nM.

`O=C(NS(=O)(=O)C1CC1)c1cc(C2CC2)c(CN2CCC(Oc3ncc(C(F)(F)F)cc3Cl)CC2)cc1F` [Example 524, 4-((4-((3-chloro-5-(trifluoromethyl)pyridin-2-yl)oxy)piperidin-1-yl)methyl)-5-cyclopropyl-N-(cyclopropylsulfonyl)-2-fluorobenzamide, trifluoroacetic acid salt]: the IC50 amounted to 11.4 nM.

`O=C(NS(=O)(=O)C1CC1)c1cc(C2CC2)c(O[C@@H]2CCCN(Cc3ccc(F)cc3)C2)cc1F` [Example 21, (R)-5-cyclopropyl-N-(cyclopropylsulfonyl)-2-fluoro-4-((1-(4-fluorobenzyl)piperidin-3-yl)oxy)benzamide] returned an IC50 of 11.2 nM.

The same experiment, now with this note: read-out: Ligand Binding Assay; 100 pM [3H]compound, membranes with hNav1.7 and β1 subunit, 18 h, room temperature.
Regarding `O=C(NS(=O)(=O)C1CC1)c1cc(C2CC2)c(OCC2CCN(C(=O)c3cccc(Cl)c3)CC2)cc1F` [Example 196, 4-((1-(3-Chlorobenzoyl)piperidin-4-yl)methoxy)-5-cyclopropyl-N-(cyclopropylsulfonyl)-2-fluorobenzamide], the IC50 was determined as 43 nM.

In the case of `C[C@@H]1CC[C@@H](Oc2cc(F)c(C(=O)NS(C)(=O)=O)cc2C2CC2)CN1Cc1ccc(F)cc1Cl` [Example 52], the IC50 was below 1.6 nM.

Regarding `O=C(NS(=O)(=O)C1CC1)c1cc(C2CC2)c(OCC2CCN(Cc3ncccc3C(F)(F)F)CC2)cc1F` [Example 364, 5-cyclopropyl-N-(cyclopropylsulfonyl)-2-fluoro-4-((1-((3-(trifluoromethyl)pyridin-2-yl)methyl)piperidin-4-yl)methoxy)benzamide, trifluoroacetic acid salt], the IC50 was 80.6 nM.

For `O=C(NS(=O)(=O)C1CC1)c1cc(C2CC2)c(OCC2CCN(c3cc(C(F)(F)F)c(Cl)cn3)CC2)cc1F` [Example 555, 4-((1-(5-chloro-4-(trifluoromethyl)pyridin-2-yl)piperidin-4-yl)methoxy)-5-cyclopropyl-N-(cyclopropylsulfonyl)-2-fluorobenzamide], the IC50 was 2.9 nM.

On to `CS(=O)(=O)NC(=O)c1cc(C2CC2)c(OCC2CCN(S(=O)(=O)c3ccc(F)c(Cl)c3)CC2)cc1F` [Example 382, 4-((1-((3-chloro-4-fluorophenyl)sulfonyl)piperidin-4-yl)methoxy)-5-cyclopropyl-2-fluoro-N-(methylsulfonyl)benzamide], for which the IC50 came out at 40.7 nM.

As for `CC(c1cc(Cl)cc(Cl)c1)N1CCC(COc2cc(F)c(C(=O)NS(=O)(=O)C3CC3)cc2C2CC2)CC1` (stereo not drawn) [Example 102, 5-Cyclopropyl-N-(cyclopropylsulfonyl)-4-((1-(1-(3,5-dichlorophenyl)-ethyl)piperidin-4-yl)methoxy)-2-fluorobenzamide], the IC50 was 2.54 nM.

As for `CS(=O)(=O)NC(=O)c1cc(C2CC2)c(OCC2CCN(Cc3cc(F)c(Cl)cc3Cl)CC2)cc1F` [Example 453, 5-cyclopropyl-4-((1-(2,4-dichloro-5-fluorobenzyl)piperidin-4-yl)methoxy)-2-fluoro-N-(methylsulfonyl)benzamide, trifluoroacetic acid salt], the IC50 turned out to be 3 nM.

As for `CS(=O)(=O)NC(=O)c1cc(C2CC2)c(OCC2CCN(Cc3ccccc3F)CC2)cc1F` [Example 127, 5-Cyclopropyl-2-fluoro-4-((1-(2-fluorobenzyl)piperidin-4-yl)methoxy)-N-(methylsulfonyl)benzamide], the IC50 was 578 nM.

Turning to `CC1(COc2cc(F)c(C(=O)NS(=O)(=O)C3CC3)cc2C2CC2)CN(c2ncc(C(F)(F)F)cc2Cl)C1` [Example 481, 4-((1-(3-chloro-5-(trifluoromethyl)pyridin-2-yl)-3-methylazetidin-3-yl)methoxy)-5-cyclopropyl-N-(cyclopropylsulfonyl)-2-fluorobenzamide], the IC50 is 3.1 nM.

With `CS(=O)(=O)NC(=O)c1cc(C2CC2)c(O[C@@H]2CCCN(S(C)(=O)=O)C2)cc1F` [Example 314, (R)-5-cyclopropyl-2-fluoro-N-(methylsulfonyl)-4-((1-(methylsulfonyl)piperidin-3-yl)oxy)benzamide], the IC50 was above 10000 nM.

As for `CC(C)N(C(=O)CN1CCC(COc2cc(F)c(C(=O)NS(C)(=O)=O)cc2C2CC2)CC1)C(C)C` [Example 180, 5-Cyclopropyl-4-((1-(2-(diisopropylamino)-2-oxoethyl)piperidin-4-yl)methoxy)-2-fluoro-N-(methylsulfonyl)benzamide], the IC50 was 9900 nM.

For `C[C@H](c1ccc(F)cc1Cl)N1C[C@H]2C[C@@H]1[C@H](Oc1cc(F)c(C(=O)NS(C)(=O)=O)cc1C1CC1)C2` [Example 451, 4-(((1R,4s,6R)-2-((R)-1-(2-chloro-4-fluorophenyl)ethyl)-2-azabicyclo[2.2.1]heptan-6-yl)oxy)-5-cyclopropyl-2-fluoro-N-(methylsulfonyl)benzamide, trifluoroacetic acid salt], the IC50 was determined as 25.7 nM.

For the molecule `C[C@@H](c1cc(Cl)cc(C(F)(F)F)c1)N1CCC(C)(COc2cc(F)c(C(=O)NS(C)(=O)=O)cc2C2CC2)CC1` (single isomer, unassigned) [Example 279], the IC50 came out at 4 nM.

As to `CS(=O)(=O)NC(=O)c1cc(C2CC2)c(O[C@@H]2CCCN(Cc3cccc(OC(F)(F)F)c3)C2)cc1F` [Example 437, (R)-5-cyclopropyl-2-fluoro-N-(methylsulfonyl)-4-((1-(3-(trifluoromethoxy)benzyl)piperidin-3-yl)oxy)benzamide, trifluoroacetic acid salt], the IC50 came out at 7.3 nM.

As to `CC1(COc2cc(F)c(C(=O)NS(=O)(=O)C3CC3)cc2C2CC2)CN(c2cc(Cl)ncc2C(F)(F)F)C1` [Example 487, 4-((1-(2-chloro-5-(trifluoromethyl)pyridin-4-yl)-3-methylazetidin-3-yl)methoxy)-5-cyclopropyl-N-(cyclopropylsulfonyl)-2-fluorobenzamide, trifluoroacetic acid salt], the IC50 was 13.5 nM.

On to `COC[C@H](c1cc(Cl)cc(Cl)c1)N1CCC[C@@H](Oc2cc(F)c(C(=O)NS(C)(=O)=O)cc2C2CC2)C1` [Example 448, 5-cyclopropyl-4-(((R)-1-((S)-1-(3,5-dichlorophenyl)-2-methoxyethyl)piperidin-3-yl)oxy)-2-4-N-(methylsulfonyl)benzamide, trifluoroacetic acid salt], for which the IC50 is 10.5 nM.

Take `CCS(=O)(=O)NC(=O)c1cc(C2CC2)c(OCC2CCN(Cc3cc(Cl)cc(C(F)(F)F)c3)CC2)cc1F` [Example 216, 4-((1-(3-Chloro-5-(trifluoromethyl)benzyl)piperidin-4-yl)methoxy)-5-cyclopropyl-N-(ethylsulfonyl)-2-fluorobenzamide]: the IC50 worked out at 5 nM.

With `CS(=O)(=O)NC(=O)c1cc(C2CC2)c(O[C@@H]2CCCN(Cc3ccc(-c4ccccc4)cc3)C2)cc1F` [Example 426, (R)-4-((1-([1,1′-biphenyl]-4-ylmethyl)piperidin-3-yl)oxy)-5-cyclopropyl-2-fluoro-N-(methylsulfonyl)benzamide, trifluoroacetic acid salt], the IC50 is 3.1 nM.

`CS(=O)(=O)NC(=O)c1cc(C2CC2)c(OCC2CN([C@H](c3ccccc3)c3ccc(OC(F)(F)F)cc3)C2)cc1F` [Example 113, (R)-5-Cyclopropyl-2-fluoro-N-(methylsulfonyl)-4-((1-(phenyl(4-(trifluoromethoxy)phenyl)methyl)azetidin-3-yl)methoxy)benzamide]: the IC50 turned out to be 11.1 nM.

For `CS(=O)(=O)NC(=O)c1cc(C2CC2)c(OCC2CCN(Cc3ccccc3Cl)CC2)cc1F` [Example 191, 4-((1-(2-Chlorobenzyl)piperidin-4-yl)methoxy)-5-cyclopropyl-2-fluoro-N-(methylsulfonyl)benzamide], the IC50 was determined as 32 nM.

On to `CS(=O)(=O)NC(=O)c1cc(C2CC2)c(OCC2CN([C@H](c3ccccc3)c3cc(Cl)cc(Cl)c3)C2)cc1F` [Example 143], for which the IC50 amounted to 2.6 nM.

Consider `O=C(NS(=O)(=O)C1CC1)c1cc(C2CC2)c(CN2CCC(Oc3cc(Cl)cc(Cl)c3)CC2)cc1F` [Example 57, 5-cyclopropyl-N-(cyclopropylsulfonyl)-4-((4-(3,5-dichlorophenoxy)piperidin-1-yl)methyl)-2-fluorobenzamide, trifluoroacetic acid salt], for which the IC50 worked out at 3.8 nM.

For `CC1(COc2cc(F)c(C(=O)NS(C)(=O)=O)cc2C2CC2)CCN(C(c2ccccc2)c2ccccc2)CC1` [Example 574, 4-((1-benzhydryl-4-methylpiperidin-4-yl)methoxy)-5-cyclopropyl-2-fluoro-N-(methylsulfonyl)benzamide], the IC50 came to 2.9 nM.

In the case of `C[C@H](c1ccc(Cl)cc1Cl)N1CCC(C)(COc2cc(F)c(C(=O)NS(C)(=O)=O)cc2C2CC2)CC1` [Example 281, (R)-5-cyclopropyl-4-((1-(1-(2,4-dichlorophenyl)ethyl)-4-methylpiperidin-4-yl)methoxy)-2-fluoro-N-(methylsulfonyl)benzamide], the IC50 came out at 4.7 nM.

For `O=C(NS(=O)(=O)C1CC1)c1cc(C2CC2)c(O[C@@H]2CCCN(c3ccccn3)C2)cc1F` [Example 492, (R)-5-cyclopropyl-N-(cyclopropylsulfonyl)-2-fluoro-4-((1-(pyridin-2-yl)piperidin-3-yl)oxy)benzamide], the IC50 was 93.8 nM.

As to `CC1(COc2cc(F)c(C(=O)NS(=O)(=O)N3CCC3)cc2C2CC2)CN(C(c2ccccc2)c2ccccc2)C1` [Example 71, N-(azetidin-1-ylsulfonyl)-4-((1-benzhydryl-3-methylazetidin-3-yl)methoxy)-5-cyclopropyl-2-fluorobenzamide], the IC50 was 3.1 nM.

Source of the values: US9546164B2 (GENENTECH, INC., priority 2013, dated 2017).
